Converted amounts (≈) assume the structure as drawn. Like-named read-outs stand apart in the source and are kept apart here. Values belong to the compound of their own block, whether it stands above or below them.
Assays:
[1] = Stability in simulated gastric fluid (SGF) and simulated intestinal fluid (SIF); type: in vitro ADME; conditions: SGF with pepsin and SIF with pancreatin pH 6.8, 125 mg/L, 37 °C
Protocol: For the SGF solution, 5 g of pepsin was dissolved in 1 L of deionized water with the addition of hydrochloric acid to achieve a pH of 1.8. The SIF solution consisted of 6.8 g of monopotassium phosphate and 10 g of pancreatin dissolved in 1 L of deionized water, maintaining a pH of 6.8.

[2] = target: T1, Caco-2 cell apical membrane-associated alkaline phosphatase (ALP) (Homo sapiens, UniProt P09923); test: Dephosphorylation by Caco-2 cell apical membrane-associated ALP; type: cell-based; conditions: Caco-2 cells, HBSS, 37 °C, 120 min incubation, initial concentration 20 μM, read-out: elimination half-life (T1/2) of dephosphorylation
T1 construct: The Caco-2 cells (human colon adenocarcinoma, clone of Caco-2) were obtained from the Bioresource Collection and Research Center; endogenous in cells; host or cells: Caco-2 (human colon adenocarcinoma) cells, intact, 5 days in culture
T1 sequence (P09923 20-503 limits assumed): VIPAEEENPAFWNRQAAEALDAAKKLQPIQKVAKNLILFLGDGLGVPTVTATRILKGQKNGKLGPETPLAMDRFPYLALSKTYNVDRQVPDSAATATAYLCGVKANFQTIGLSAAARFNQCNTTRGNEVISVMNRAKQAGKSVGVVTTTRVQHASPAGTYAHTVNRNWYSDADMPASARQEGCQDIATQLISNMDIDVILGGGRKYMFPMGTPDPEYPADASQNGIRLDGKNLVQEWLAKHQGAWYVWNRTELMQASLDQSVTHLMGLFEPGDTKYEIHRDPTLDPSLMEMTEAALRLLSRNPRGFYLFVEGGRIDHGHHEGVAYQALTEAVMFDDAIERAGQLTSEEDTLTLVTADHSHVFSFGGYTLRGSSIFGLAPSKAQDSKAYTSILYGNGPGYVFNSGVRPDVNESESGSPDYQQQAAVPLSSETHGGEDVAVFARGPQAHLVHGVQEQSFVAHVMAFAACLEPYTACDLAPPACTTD
Protocol: The Caco-2 cells (human colon adenocarcinoma, clone of Caco-2) were obtained from the Bioresource Collection and Research Center, Hsinchu, Taiwan. Caco-2 cells were cultured according to previously established protocols. For the dephosphorylation study, the cells were seeded onto 6-well plates at a density of 3.0 × 10^5 cells per well in 2 mL of fresh medium. The medium was refreshed every 48 h. […] The plates were then incubated at 37 °C, and aliquots of 200 μL were collected at 15, 30, 60, and 120 min. […] The supernatants were analyzed by HPLC to quantify the relative content of LutPs to Lut and ApnPs to Apn. To assess the activity of human intestinal alkaline phosphatase (ALP), a positive control of fosphenytoin, a phenytoin phosphate prodrug, was used.
The HPLC system employed in this study consisted of the Waters Alliance 2695 separation module (Waters, Milford, MA, USA), a YMC-Pack ODS-AM C18 column (4.6 × 250 mm, 5 µm) with a guard cartridge (Hichrom 5C18, Berkshire, UK) and a Waters 2487 Dual-Absorbance Detector (Waters, Milford, MA, USA). Chromatographic separation was conducted at a temperature of 30 °C, utilizing a linear gradient mobile phase consisting of 0.1% phosphoric acid in H2O (solvent A) and 0.1% phosphoric acid in acetonitrile (solvent B). The elution gradient programs for quantifying each compound are detailed in Supplementary Materials Table S1. Luteolin and its derivatives were detected at a wavelength of 354 nm, while apigenin and its derivatives were detected at a wavelength of 270 nm, and fosphenytoin at 210 nm. The quantitation was conducted using the external standard method with calibration curves, and the quality was ensured by maintaining an R^2 value exceeding 0.99.

[3] = Oral pharmacokinetics of Apn, Apn7G and ApnPs in SD rats; type: in vivo, Sprague Dawley (SD) rats
Protocol: (§1) (Taipei, Taiwan). and housed individually. The facilities were maintained at 25 °C, at constant humidity, and a 12 h light/dark cycle with ad libitum access to food and water and acclimated for at least 7 days prior to any experiments. Rats were fasted for 24 h before the experiments, with water freely available. For the pharmacokinetic study, rats were randomly assigned to three groups for the tests (n = 4 for Lut-relevant groups; n = 4-5 for Apn-relevant groups). […] The Apn-relevant groups received Apn aqueous suspension, Apn7G aqueous suspension, or ApnPs solution. Dosages were designed as 174.7 μmol/kg for Lut and 185.02 μmol/kg for Apn, based on the human dietary supplement dosage of 500 mg/day, translated by the body surface area index as per FDA guidelines. […] Lut and Apn were quantified in biological samples after enzymatic hydrolysis of their conjugated forms. The plasma was acidified to pH 5 by adding 10 μL of 0.5 M acetate buffer. […] The mixture was fractionated using a Sep-Pak C18 cartridge (Waters, Milford, MA, USA), eluted in order with 0.01 M oxalic acid, water/methanol/0.5 M oxalic acid (88:10:2), distilled water, and 100% methanol. The methanol fraction was adjusted to a constant volume of 500 μL and filtered with a 0.22 μm membrane to remove insoluble matter, and, subsequently, the filtrate underwent UPLC-MS/MS. The levels of Lut and Apn in the plasma were quantified using a Waters ACQUITY UPLC I-Class system (Waters, Milford, MA, USA) equipped with an XEVO TQS-microTriple-Quadrupole Tandem Mass Spectrometer (Waters, Milford, MA, USA). Chromatographic separation was achieved using a Thermo Hypersil GOLD aQ C18 (50 × 2.1 mm, 1.9 μm) column (Thermo Fisher Scientific, Waltham, MA, USA). The injection volume was 3 μL. […] The temperature of the column oven was set at 40 °C. The MRM mode in negative mode was used, and the MS parameter was set as follows. The most intense precursor-to-product transitions were selected: m/z 285→133 for luteolin, and m/z 269→107 and m/z 269→41 for apigenin and genistein, respectively. The source voltage was 1500 V. The desolvation temperature was 400 °C, and the desolvation gas flow was 800 L/h. The source temperature was 150 °C. The contents of Lut and Apn were calculated by the calibration curve and the response obtained by the peak area of them against the internal standard. Details on the multiple reaction monitoring (MRM) conditions, elution gradient programs, and UPLC method validation are provided in the Supplementary Materials Tables S2 and S3. The pharmacokinetic parameters, including maximum concentration (Cmax), time to reach maximum concentration (Tmax), and area under curve (AUC), were determined using the pharmacokinetic software WinNonlin Standard Edition v1.1 (Pharsight Corp., Mountainview, CA, USA).

[4] = Dissolution study, USP apparatus II (paddle method); type: physicochemical; conditions: for dissolution rate in bile extract solution: bile extract solution as dissolution medium; for dissolution rate after 60 min: standard dissolution medium, 0.05 M phosphate buffer pH 6.8, 37 °C, 20 μM
Protocol: To investigate the influence of bile extract (comprising bile salts and phospholipids) on the dissolution of these compounds, bile extract solutions were prepared according to the protocol described by Makioka et al. This involved dissolving 12 g of porcine bile extract and 8.4 g of sodium bicarbonate in 1 L of deionized water, which served as the dissolution medium. After the sample was placed in the dissolution medium, 1 mL aliquots of the medium were collected at 5, 10, 20, 30, 45, and 60 min of incubation, and filtered through a 0.2 μm polyethersulfone filter (Pall Corp., New York, NY, USA). Subsequently, 500 μL of each sample was acidified with 5 μL of 2 M acetic acid and stored at −20 °C until HPLC analysis.

[5] = cited from earlier work
[6] = set-up: method as in PMID 32785007; conditions: rats, oral 10 mg/kg; read-out: maximum plasma concentration (Cmax); cited from earlier work
[7] = Aqueous solubility, classical shake-flask method; conditions: ultrapure water
From the text: Then, the resulting supernatant (the saturated solution) was aliquoted and diluted carefully and properly to perform the quantitative analysis using HPLC.

[8] = Oral pharmacokinetics of Lut, Lut7G and LutPs in SD rats; type: in vivo, Sprague Dawley (SD) rats
Protocol: as §1

[9] = set-up: method as in doi:10.1016/j.jff.2017.05.056; conditions: rats, 20 μmol/kg (5.725 mg/kg) via gavage; cited from earlier work
[10] = rat, in vivo, po, 185.02 umol/kg
[11] = rat, in vivo, po, 174.7 umol/kg

Compound: O=c1cc(-c2ccc(OP(=O)(O)O)cc2)oc2cc(O)cc(O)c12 [Apn4′P, apigenin 4′-O-phosphate]
- retained relative content after 240 min of incubation [1]: over 80%
- half-life at 20 μM [2]: 1.07 h

Compound: O=c1cc(-c2ccc(O)cc2)oc2cc(OP(=O)(O)O)cc(O)c12 [Apn7P, apigenin 7-O-phosphate]
- retained relative content after 240 min of incubation [1]: 76%
- half-life at 20 μM [2]: 0.73 h

Compound: O=c1cc(-c2ccc(O)c(OP(=O)(O)O)c2)oc2cc(O)cc(O)c12 [Lut3′P, luteolin 3′-O-phosphate]
- retained relative content after 240 min of incubation [1]: over 80%
- half-life at 20 μM [2]: 0.693 h

Compound: O=c1cc(-c2ccc(OP(=O)(O)O)c(O)c2)oc2cc(O)cc(O)c12 [Lut4′P, luteolin 4′-O-phosphate]
- retained relative content after 240 min of incubation [1]: over 80%
- half-life at 20 μM [2]: 0.463 h

Compound: O=c1cc(-c2ccc(O)c(O)c2)oc2cc(OP(=O)(O)O)cc(O)c12 [Lut7P, luteolin 7-O-phosphate]
- retained relative content after 240 min of incubation [1]: 73%
- half-life at 20 μM [2]: 0.287 h

Continued, in another order:

- Apn conjugates AUC0–t [3, 10]: 13,243.27 nM·h
- Apn conjugates Tmax [3, 10]: 2.00 h
- Lut (metabolite) conjugates AUC0–t [3, 10]: 8.78863 µM·h
- Lut (metabolite) conjugates Tmax [3, 10]: 2.00 h
- aglyconic Apn AUC0–t [3, 10]: 0.37171 µM·h
- aglyconic Apn Tmax [3, 10]: 0.5 h
- aglyconic Lut (metabolite) AUC0–t [3, 10]: 0.01854 µM·h
- aglyconic Lut (metabolite) Tmax [3, 10]: 1.00 h
- overall Apn AUC0–t [3, 10]: 13,614.98 nM·h
- overall Apn Tmax [3, 10]: 2.00 h
- overall Lut (metabolite) AUC0–t [3, 10]: 8.87017 µM·h
- overall Lut (metabolite) Tmax [3, 10]: 2.00 h
Compound: O=c1cc(-c2ccc(O)cc2)oc2cc(O[C@@H]3O[C@H](CO)[C@@H](O)[C@H](O)[C@H]3O)cc(O)c12 [Apn7G, apigenin 7-O-glucoside]

- dissolution rate in bile extract solution [4]: 12.5%
- dissolution rate after 60 min [4]: 0.24%
- AUC(0-t) ([3]; male, Sprague Dawley, 185.02 umol/kg, rat plasma, oral 185.02 µmol/kg, 0 to 10 h, read-out: aglyconic Apn AUC0–t): 0.113 µM·h
- Cmax ([3]; male, Sprague Dawley, 185.02 umol/kg, rat plasma, oral 185.02 µmol/kg, mean ± SE, read-out: aglyconic Apn Cmax): 14 ± 1.27 nM
- aglyconic Apn Tmax ([3]; rat plasma, oral 185.02 µmol/kg): 0.5 h
- solubility [7]: 1.2 µg/mL (≈ 4.44 µM)
Compound: O=c1cc(-c2ccc(O)cc2)oc2cc(O)cc(O)c12 [Apn, 4′,5,7-trihydroxyflavone]
- absolute oral bioavailability [5]: 0.71%
- Cmax [6]: 80 nM

- AUC0–∞ of overall Lut ([8]; rat, in vivo, po): 35.419 µM·h
- aglyconic luteolin AUC0–t [8, 11]: 2.00935 µM·h
- aglyconic luteolin Tmax [8, 11]: 1.00 h
- luteolin conjugates AUC0–t [8, 11]: 31,336.03 nM·h
- luteolin conjugates Tmax [8, 11]: 4.00 h
- overall luteolin AUC0–t [8, 11]: 33,111.44 nM·h
- overall luteolin Tmax [8, 11]: 2.00 h
Compound: O=c1cc(-c2ccc(O)c(O)c2)oc2cc(O[C@@H]3O[C@H](CO)[C@@H](O)[C@H](O)[C@H]3O)cc(O)c12 [Lut7G, luteolin 7-O-glucoside]

- dissolution rate in bile extract solution [4]: 10.2%
- dissolution rate after 60 min [4]: 3.5%
- Cmax ([8]; male, Sprague Dawley, 174.7 umol/kg, rat plasma, oral 174.7 µmol/kg, mean ± SE, read-out: aglyconic luteolin Cmax): 140 ± 194 nM
- AUC(0-t) ([8]; male, Sprague Dawley, 174.7 umol/kg, rat plasma, oral 174.7 µmol/kg, zero to 8 h, read-out: aglyconic luteolin AUC0–t): 0.635 µM·h
- Tmax ([8]; male, Sprague Dawley, 174.7 umol/kg, rat plasma, oral 174.7 µmol/kg, read-out: aglyconic luteolin Tmax): 1 h
- solubility [7]: 13 µg/mL (≈ 45.4 µM)
Compound: O=c1cc(-c2ccc(O)c(O)c2)oc2cc(O)cc(O)c12 [Lut, 3′,4′,5,7-tetrahydroxyflavone]
- absolute oral bioavailability [5]: 4.10%
- brain tissue concentration [9]: less than 0.1 nmol/g

- half-life at 20 μM [2]: 1.67 h
Compound: O=C1NC(c2ccccc2)(c2ccccc2)C(=O)N1COP(=O)(O)O [fosphenytoin]
